From patent US4476120A, “Thiolic derivatives of erythromycin having therapeutic activity, and pharmaceutical compositions containing them” (Sigma Tau Indistrie Farmaceutiche Riunites, p.A, priority 1982, dated 1984)
Converted amounts (≈) assume the structure as drawn.

Assays:
[1] = system: N. meningitidis SS 04; format: cell-based; settings: Brain Heart Infusion, estolate and RV11-RV15 previously hydrolized, unit assumed
[2] = system: Br. melitensis SS 19; format: cell-based; settings: unit assumed
[3] = system: Strept. haemolyticus SS 17; format: cell-based; settings: Brain Heart Infusion, estolate and RV11-RV15 previously hydrolized, unit assumed
[4] = system: Staph. aureus SS 08; format: cell-based; settings: Brain Heart Infusion, estolate and RV11-RV15 previously hydrolized, unit assumed
[5] = system: Ps. aeruginosa SS 10; format: cell-based; settings: Brain Heart Infusion, estolate and RV11-RV15 previously hydrolized, unit assumed
[6] = system: Pr. mirabilis SS 09; format: cell-based; settings: Brain Heart Infusion, estolate and RV11-RV15 previously hydrolized, unit assumed
[7] = system: E. aerogenes SS 011; format: cell-based; settings: Brain Heart Infusion, estolate and RV11-RV15 previously hydrolized, unit assumed
[8] = system: E. cloacae SS 07; format: cell-based; settings: Brain Heart Infusion, estolate and RV11-RV15 previously hydrolized, unit assumed
[9] = Histological examination of bronchi after SO2 inhalation; format: in vivo, Sprague Dawley male rats; settings: i.m., 250 mg/kg
[10] = system: Staph. aureus SS 09; format: cell-based; settings: Brain Heart Infusion, estolate and RV11-RV15 previously hydrolized, unit assumed
[11] = system: E. coli SS 07; format: cell-based; settings: Brain Heart Infusion, estolate and RV11-RV15 previously hydrolized, unit assumed
[12] = system: Cl. tetani SS 17; format: cell-based; settings: Brain Heart Infusion, estolate and RV11-RV15 previously hydrolized, unit assumed
[13] = system: Citrobacter SS 09; format: cell-based; settings: Brain Heart Infusion, estolate and RV11-RV15 previously hydrolized, unit assumed
[14] = system: C. albicans SS 04; format: cell-based; settings: Brain Heart Infusion, estolate and RV11-RV15 previously hydrolized, unit assumed
[15] = system: Strept. faecalis SS 19; format: cell-based; settings: Brain Heart Infusion, estolate and RV11-RV15 previously hydrolized, unit assumed
[16] = system: S. heidelberg SS 18; format: cell-based; settings: Brain Heart Infusion, estolate and RV11-RV15 previously hydrolized, unit assumed
[17] = system: C. diphtheriae SS 19; format: cell-based; settings: Brain Heart Infusion, estolate and RV11-RV15 previously hydrolized, unit assumed
[18] = system: Br. abortus SS 7; format: cell-based; settings: Brain Heart Infusion, estolate and RV11-RV15 previously hydrolized, unit assumed
[19] = system: D. pneumoniae SS 23; assay: Experimental infection induced by D. pneumoniae SS 23; format: in vivo, Swiss white mice; settings: D. pneumoniae SS 23, mg/kg of erythromycin, survival after 7 days, 10080 min
Procedure, shortened: (§1)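 Swiss mice of 20 g infected parenterally with lethal amounts of Staph. aureus SS 07 or D. pneumoniae SS 23. Antibiotics were given at infection and again 6 and 24 h later. ED50 was derived from survival at 7 days.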

[20] = Acute toxicity; format: in vivo; settings: mortality 10 days after treatment, mice
Description: The acute toxicity was assessed in Swiss white mice by oral and intravenous route. The LD50 values have been calculated by the methods of Probits, starting from the mortality recorded 10 days after the treatment.

[21] = system: Kl. aerogenes SS 71; format: cell-based; settings: Brain Heart Infusion, estolate and RV11-RV15 previously hydrolized, unit assumed
[22] = system: B. cereus ATCC 11778; format: cell-based; settings: Brain Heart Infusion, estolate and RV11-RV15 previously hydrolized, unit assumed
[23] = system: Staph. albus SS 03; format: cell-based; settings: Brain Heart Infusion, estolate and RV11-RV15 previously hydrolized, unit assumed
[24] = system: Staph. albus SS 04; format: cell-based; settings: Brain Heart Infusion, estolate and RV11-RV15 previously hydrolized, unit assumed
[25] = system: B. anthranis SS 08; format: cell-based; settings: Brain Heart Infusion, estolate and RV11-RV15 previously hydrolized, unit assumed
[26] = system: S. lutea ATCC 9341; format: cell-based; settings: Brain Heart Infusion, estolate and RV11-RV15 previously hydrolized, unit assumed
[27] = system: Kl. pneumoniae SS 04; format: cell-based; settings: Brain Heart Infusion, estolate and RV11-RV15 previously hydrolized, unit assumed
Source text: (§2) In the following table I the MIC/ml values are indicated corresponding to the lowest concentration capable of inducing a complete inhibition of the bacterial development.

[28] = system: H. tubercolosis SS 03; format: cell-based; settings: Brain Heart Infusion, estolate and RV11-RV15 previously hydrolized, unit assumed
Source text: as §2

[29] = system: B. subtilis SS 127; format: cell-based; settings: Brain Heart Infusion, estolate and RV11-RV15 previously hydrolized, unit assumed
[30] = system: N. gonorreae SS 27; format: cell-based; settings: Brain Heart Infusion, estolate and RV11-RV15 previously hydrolized, unit assumed
[31] = system: H. influentiae SS 02; format: cell-based; settings: Brain Heart Infusion, estolate and RV11-RV15 previously hydrolized, unit assumed
[32] = system: Staph. aureus SS 10; format: cell-based; settings: Brain Heart Infusion, estolate and RV11-RV15 previously hydrolized, unit assumed
[33] = system: H. pertussis SS 03; format: cell-based; settings: Brain Heart Infusion, estolate and RV11-RV15 previously hydrolized, unit assumed
[34] = system: S. infantis SS 08; format: cell-based; settings: Brain Heart Infusion, estolate and RV11-RV15 previously hydrolized, unit assumed
[35] = system: Staph. aureus SS 07; assay: Experimental infection induced by Staph. aureus SS 07; format: in vivo, Swiss white mice; settings: Staph. aureus SS 07, mg/kg of erythromycin, survival after 7 days, 10080 min
Procedure, shortened: as §1

[36] = system: Strept. haemolyticus SS 18; format: cell-based; settings: Brain Heart Infusion, estolate and RV11-RV15 previously hydrolized, unit assumed
[37] = system: D. pneumoniae SS 23; format: cell-based; settings: Brain Heart Infusion, estolate and RV11-RV15 previously hydrolized, unit assumed
[38] = system: E. coli SS 06; format: cell-based; settings: Brain Heart Infusion, estolate and RV11-RV15 previously hydrolized, unit assumed
[39] = system: Citrobacter SS 05; format: cell-based; settings: Brain Heart Infusion, estolate and RV11-RV15 previously hydrolized, unit assumed
[40] = system: E. coli SS 05; format: cell-based; settings: Brain Heart Infusion, estolate and RV11-RV15 previously hydrolized, unit assumed
[41] = system: Sr. marcescens SS 03; format: cell-based; settings: Brain Heart Infusion, estolate and RV11-RV15 previously hydrolized, unit assumed
[42] = system: E. coli SS 04; format: cell-based; settings: Brain Heart Infusion, estolate and RV11-RV15 previously hydrolized, unit assumed
[43] = system: Pr. vulgaris SS 10; format: cell-based; settings: Brain Heart Infusion, estolate and RV11-RV15 previously hydrolized, unit assumed

For `CC[C@H]1OC(=O)[C@H](C)[C@@H](O[C@H]2C[C@@](C)(OC)[C@@H](O)[C@H](C)O2)[C@H](C)[C@@H](O[C@@H]2O[C@H](C)C[C@H](N(C)C)[C@H]2O)[C@](C)(O)C[C@@H](C)C(=O)[C@H](C)[C@@H](O)[C@]1(C)O` [RV03, erythromycyn-thiazolidin-carboxylate], the MIC [1] was 1.5 µg/mL (≈ 2.04 µM), the MIC [2] was 6 µg/mL (≈ 8.18 µM) and the MIC [3] was 1.5 µg/mL (≈ 2.04 µM). The MIC [4] was 0.025 µg/mL (≈ 0.0341 µM), the MIC [5] was 100 µg/mL (≈ 136 µM) and the MIC [6] was > 200 µg/mL. The MIC [7] was 50 µg/mL (≈ 68.1 µM), the MIC [8] was > 200 µg/mL and the “histological appearance of non obstructed bronchi” value ([9]; free non obstructed) was “practically normal appearance”. For the same molecule, the “histological appearance of obstructed bronchial tract” value ([9]; obstructed) was “an appearance like that of the control animals”, the MIC [10] was 0.05 µg/mL (≈ 0.0681 µM) and the MIC [11] was 50 µg/mL (≈ 68.1 µM). For the same molecule, the MIC [12] was 0.4 µg/mL (≈ 0.545 µM), the MIC [13] was > 200 µg/mL and the MIC [14] was 200 µg/mL (≈ 273 µM). It also gave an MIC [15] of 0.05 µg/mL (≈ 0.0681 µM), an MIC [16] of 100 µg/mL (≈ 136 µM) and an MIC [17] of 0.025 µg/mL (≈ 0.0341 µM). For the same molecule, the MIC [18] was 6 µg/mL (≈ 8.18 µM), the “ED50 (reliability limits)” value ([19]; os) was 119.21 (142.60-99.65) mg/kg and the “ED50 (reliability limits)” value ([19]; s.c.) was 47.98 (59.13-38.93) mg/kg. The “LD50 (reliability limits)” value ([20]; i.v., 14400 min) was 491.96 (552.31-438.20) mg.kg, the “LD50 (reliability limits)” value ([20]; os) was > 3000 mg·kg and the MIC [21] was 50 µg/mL (≈ 68.1 µM). The MIC [22] was 0.08 µg/mL (≈ 0.109 µM), the MIC [23] was 0.05 µg/mL (≈ 0.0681 µM) and the MIC [24] was 0.025 µg/mL (≈ 0.0341 µM). The MIC [25] was 0.2 µg/mL (≈ 0.273 µM), the MIC [26] was 0.025 µg/mL (≈ 0.0341 µM) and the MIC [27] was 100 µg/mL (≈ 136 µM). For the same molecule, the MIC [28] was 25 µg/mL (≈ 34.1 µM), the MIC [29] was 0.025 µg/mL (≈ 0.0341 µM) and the MIC [30] was 0.8 µg/mL (≈ 1.09 µM). It also gave an MIC [31] of 1.5 µg/mL (≈ 2.04 µM), an MIC [32] of 0.1 µg/mL (≈ 0.136 µM) and an MIC [33] of 0.4 µg/mL (≈ 0.545 µM). The MIC [34] was 200 µg/mL (≈ 273 µM), the “ED50 (reliability limits)” value ([35]; os) was 2.14 (2.42-1.89) mg/kg and the “ED50 (reliability limits)” value ([35]; s.c.) was 1.00 (1.36-0.73) mg/kg. It also gave an MIC [36] of 1.5 µg/mL (≈ 2.04 µM), an MIC [37] of 0.025 µg/mL (≈ 0.0341 µM) and an MIC [38] of 50 µg/mL (≈ 68.1 µM). For the same molecule, the MIC [39] was > 200 µg/mL, the MIC [40] was 50 µg/mL (≈ 68.1 µM) and the MIC [41] was 100 µg/mL (≈ 136 µM). For the same molecule, the MIC [42] was 100 µg/mL (≈ 136 µM) and the MIC [43] was > 200 µg/mL.
